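Results reflect a 48-hour exposure of cells in 96-well plates to compound at five concentrations. GI50 = concentration required for 50% inhibition of growth.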 Activity calls are given as the source filed them. Rule as the data show it: active = GI50 up to about 1.1 µM and inactive = higher.
Legend:
Experiment in all cases: NCI anticancer screen, dose series, 48 h
786-0 = tested on: 786-0
BT-549 = tested on: BT-549
HCT-116 = tested on: HCT-116
HOP-62 = tested on: HOP-62
HT-29 = tested on: HT-29
IGROV-1 = tested on: IGROV-1
KM12 = tested on: KM12
NCI-H226 = tested on: NCI-H226
NCI-H522 = tested on: NCI-H522
OVCAR-5 = tested on: OVCAR-5
OVCAR-8 = tested on: OVCAR-8
RPMI-8226 = tested on: RPMI-8226
SF-295 = tested on: SF-295
SK-MEL-5 = tested on: SK-MEL-5
SNB-19 = tested on: SNB-19
U-251 = tested on: U-251
SK-MEL-2 = tested on: SK-MEL-2
SK-OV-3 = tested on: SK-OV-3

Measured: GI50

CCNC(=O)c1c(O)nc2ccccc2c1O
inactive: 786-0 67.3 µM | BT-549 78.2 µM | HCT-116 51.1 µM | HOP-62 64.9 µM | HT-29 46.2 µM | IGROV-1 39.4 µM | KM12 97.7 µM | NCI-H226 > 100 µM | NCI-H522 69.2 µM | OVCAR-5 42.4 µM | OVCAR-8 > 100 µM | RPMI-8226 17.6 µM | SF-295 80.9 µM | SK-MEL-5 43.5 µM | SNB-19 83.9 µM | U-251 29.5 µM

Cc1ccc([C@@H]2[C@@H](C(=O)c3ccccn3)[C@H](c3ccc(C)cc3)C[C@](O)(c3ccccn3)[C@H]2C(=O)c2ccccn2)cc1
inactive: 786-0 1.81 µM | BT-549 > 27.4 µM | HCT-116 2.89 µM | HOP-62 5.73 µM | HT-29 2.97 µM | IGROV-1 4.53 µM | KM12 7.98 µM | NCI-H226 4.1 µM | NCI-H522 32.8 µM | OVCAR-5 8.93 µM | OVCAR-8 3.33 µM | SF-295 4.21 µM | SK-MEL-2 3.46 µM | SK-MEL-5 3.71 µM | SNB-19 3.04 µM | U-251 2.77 µM

C=CCCC(=O)C(=[N+]=[N-])C(=O)CCC(=O)c1ccccc1
inactive: 786-0 > 10 µM | BT-549 > 10 µM | HOP-62 > 10 µM | HT-29 > 10 µM | IGROV-1 > 10 µM | NCI-H226 > 10 µM | OVCAR-5 > 10 µM | OVCAR-8 > 10 µM | RPMI-8226 > 10 µM | SF-295 > 10 µM | SK-MEL-2 > 10 µM | SK-MEL-5 > 10 µM | SK-OV-3 > 10 µM | SNB-19 > 10 µM | U-251 > 10 µM

CCCn1c(=O)c(N2CCN(c3ccccc3)CC2)nc2sc3ccccc3c21
inactive: 786-0 > 100 µM | BT-549 97.3 µM | HCT-116 > 100 µM | HOP-62 > 100 µM | HT-29 > 100 µM | IGROV-1 > 100 µM | KM12 > 100 µM | NCI-H522 > 100 µM | OVCAR-5 > 100 µM | OVCAR-8 > 100 µM | SF-295 > 100 µM | SK-MEL-2 > 100 µM | SK-MEL-5 > 100 µM | SK-OV-3 > 100 µM | SNB-19 > 100 µM | U-251 > 100 µM

Cc1ccc(S(=O)(=O)NC(=O)NC(C(=O)O)C(C)O)cc1 (centres undefined)
inactive: 786-0 > 100 µM | BT-549 > 100 µM | HCT-116 > 100 µM | HOP-62 > 100 µM | HT-29 > 100 µM | IGROV-1 > 100 µM | KM12 > 100 µM | NCI-H522 > 100 µM | OVCAR-5 > 100 µM | OVCAR-8 > 100 µM | RPMI-8226 > 100 µM | SF-295 > 100 µM | SK-MEL-2 > 100 µM | SK-MEL-5 > 100 µM | SK-OV-3 > 100 µM | SNB-19 > 100 µM | U-251 > 100 µM

N#CCCN(CCCN(CCCN(C(=O)Nc1ccccc1)c1ccccc1)C(=O)Nc1ccccc1)C(=O)Nc1ccccc1
inactive: 786-0 > 8.75 µM | BT-549 > 8.75 µM | HCT-116 > 8.75 µM | HOP-62 > 8.75 µM | HT-29 > 8.75 µM | IGROV-1 > 8.75 µM | KM12 > 8.75 µM | NCI-H226 31.4 µM | OVCAR-5 > 8.75 µM | OVCAR-8 > 8.75 µM | RPMI-8226 3.44 µM | SF-295 > 8.75 µM | SK-MEL-2 > 8.75 µM | SK-MEL-5 > 8.75 µM | SK-OV-3 > 8.75 µM | SNB-19 > 8.75 µM | U-251 > 100 µM

CCCCCCCC(=O)N1C2CC3CCC2(CS1(=O)=O)C3(C)C (centres undefined)
inactive: 786-0 15.7 µM | BT-549 26.4 µM | HCT-116 30.1 µM | HOP-62 20.8 µM | HT-29 > 10 µM | IGROV-1 43.2 µM | KM12 26.2 µM | NCI-H522 19.4 µM | OVCAR-5 44.8 µM | OVCAR-8 34.1 µM | RPMI-8226 19.7 µM | SF-295 22.2 µM | SK-MEL-5 18.2 µM | SK-OV-3 46.8 µM | SNB-19 26 µM | U-251 31.3 µM

Cn1cc[n+](-c2cc(=O)n(C)c(=O)[n-]2)c1
inactive: 786-0 > 100 µM | BT-549 > 100 µM | HCT-116 > 100 µM | HOP-62 > 100 µM | HT-29 > 100 µM | IGROV-1 > 100 µM | KM12 > 100 µM | NCI-H226 91.8 µM | OVCAR-5 > 100 µM | RPMI-8226 96.8 µM | SK-MEL-2 > 100 µM | SK-MEL-5 97.7 µM | SK-OV-3 > 100 µM | SNB-19 > 100 µM | U-251 > 100 µM

COc1ccc(NC(=O)N(C)CC2(O)CCC(C(C)(C)C)CC2)cc1 (centres undefined)
inactive: 786-0 > 100 µM | BT-549 63.4 µM | HCT-116 83.4 µM | HOP-62 > 100 µM | HT-29 32.5 µM | IGROV-1 > 100 µM | KM12 42.7 µM | NCI-H522 32.7 µM | OVCAR-5 > 100 µM | OVCAR-8 60.8 µM | RPMI-8226 21 µM | SF-295 29 µM | SK-MEL-2 63.8 µM | SK-OV-3 80.9 µM | SNB-19 > 100 µM | U-251 > 100 µM

Cc1nn(-c2ccccc2)c(C)c1/C=N/N=C1\S/C(=C\c2ccc(Cl)cc2)C(=O)N1c1ccccc1
inactive: 786-0 3.13 µM | BT-549 > 100 µM | HCT-116 9.48 µM | HOP-62 20.1 µM | HT-29 16.6 µM | IGROV-1 5.83 µM | KM12 7.67 µM | NCI-H226 > 100 µM | OVCAR-5 > 100 µM | OVCAR-8 40.3 µM | RPMI-8226 26.4 µM | SF-295 > 100 µM | SK-MEL-2 > 100 µM | SK-MEL-5 > 100 µM | SK-OV-3 > 100 µM | SNB-19 48.8 µM | U-251 10.9 µM

O=C1C2=Cc3ccccc3OC2(O)Oc2cc(O)cc(O)c21 (centres undefined)
inactive: 786-0 > 100 µM | BT-549 > 100 µM | HCT-116 > 100 µM | HOP-62 > 100 µM | HT-29 > 100 µM | IGROV-1 > 100 µM | KM12 > 100 µM | NCI-H226 > 100 µM | OVCAR-5 > 100 µM | OVCAR-8 > 100 µM | RPMI-8226 > 100 µM | SF-295 > 100 µM | SK-MEL-2 > 100 µM | SK-MEL-5 > 100 µM | SK-OV-3 > 100 µM | U-251 > 100 µM

COc1c2cc([N+](=O)[O-])cc1CN(C(=O)C(F)(F)F)CCOCCN(C(=O)C(F)(F)F)C2
inactive: 786-0 > 100 µM | BT-549 70.6 µM | HCT-116 > 100 µM | HOP-62 > 100 µM | HT-29 > 100 µM | IGROV-1 > 100 µM | KM12 > 100 µM | NCI-H226 > 100 µM | NCI-H522 > 100 µM | OVCAR-5 > 100 µM | OVCAR-8 > 100 µM | SF-295 > 100 µM | SK-MEL-2 > 100 µM | SK-MEL-5 > 100 µM | SK-OV-3 > 100 µM | SNB-19 > 100 µM | U-251 > 100 µM

From ChEMBL document CHEMBL1201862, “PubChem BioAssay data set” (2004)
